Active and inactive are the calls of the source.
Key:
[1] = Dd2 parasite growth inhibition in erythrocytes – SYBR Green, dry powder samples, set 4, dose response (AID 1159572); format: functional, cell-based
[2] = target: Paired box protein Pax-8 (Homo sapiens, UniProt Q06710); test: PAX8 transcriptional activity inhibition in RMG-I – RMG-I cells, luciferase, cherry-pick, dose response (AID 687027); format: functional, cell-based;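 also: luciferase reporter driven by Pax8 target thyroperoxidase promoter measured by SteadyGlo luminescence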
[3] = reduced cellular PGC1a acetyl-lysine signal – cell-based, cherry-picked samples, dose response (AID 720514); format: functional;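 also: potency may reflect raised or lowered acetylation signal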
[4] = OVCAR-3 cell viability loss – plate reader, dry powder samples, PAX8 inhibitor project, dose response (AID 743044); format: functional, cell-based
[5] = IGROV1 cell killing – plate reader, dry powder samples, PAX8 inhibitor project, dose response (AID 743043); format: functional, cell-based; conditions: IGROV-1
[6] = general cell-killing toxicity readout – plate reader, dry powder samples, cytotoxicity control for PAX8 inhibitor project, dose response (AID 743021); format: functional, cell-based
[7] = OVCAR8 cell viability loss – plate reader, dry powder samples, PAX8 project, dose response (AID 743197); format: functional, cell-based; conditions: OVCAR-8
[8] = P. falciparum Dd2 growth inhibitors, dose response, SYBR Green, cherry-picked samples (AID 1159567); format: functional, cell-based
[9] = toxicity to human hepatoma HepG2 cells – cell-based, cherry-picked samples, cytotoxicity control, dose response (AID 1159577); format: functional
[10] = target: T1, Fibrinogen beta chain (Homo sapiens, UniProt P02675); test: Fluorescence polarization-based biochemical high throughput dose response assay to identify inhibitors that disrupt the binding of a cyclic peptide (Tn6) to the fibrin proteolytic product D-Dimer and fragment E complex [DD(E )].
[11] = target: T1, Fibrinogen beta chain; test: Fluorescence polarization-based biochemical high throughput dose response assay to identify inhibitors that disrupt the binding of a cyclic peptide (Tn7) to the fibrin proteolytic product D-Dimer and fragment E complex [DD(E )].
[12] = inhibitors acting on PAX2 in cells – cell-based, plate reader, dry powder samples, selectivity assay for PAX8 inhibitor project, dose response (AID 743048); format: functional;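 also: HEK293 cells carrying a WT1 promoter luciferase reporter driven by expressed Pax2; potency is for inhibition of Pax2 driven reporter signal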
[13] = PAX5 cellular inhibition readout – cell-based, plate reader, dry powder samples, selectivity assay for PAX8 inhibitor project, dose response (AID 743047); format: functional;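 also: HEK293 cells carrying a Pax5 driven CD19 promoter luciferase reporter; potency of inhibitors that lower reporter luminescence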
[14] = COV434 cell viability loss – plate reader, dry powder, SA7, cytotoxicity control for PAX8 inhibitor project, dose response (AID 743145); format: functional, cell-based
[15] = OV-90 cell viability loss – plate reader, dry powder, SA8, PAX8 inhibitor project, dose response (AID 743149); format: functional, cell-based
[16] = PAX8-dependent cell viability loss – plate reader, dry powder, dose response (AID 743049); format: functional, cell-based
[17] = NIH-3T3 fibroblast cytotoxicity, dose response, cytotoxicity control, cell-based, fluorescence, Alamar Blue, secondary assay (AID 2327); format: functional;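 also: NIH-3T3 mouse fibroblasts cultured with fluconazole at 8 µg/mL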
[18] = tested on: Streptococcus sp. 'group A'; test: Streptococcus pyogenes SK(-)GAS viability under kanamycin – luminescence, BacTiterGlo, confirmation, counter-screen for streptokinase expression inhibitor project, dose response (AID 1900); format: functional, organism-based
[19] = target: Luciferin 4-monooxygenase (Photinus pyralis, UniProt P08659); test: Counter Screen for Luciferase-based Assay Positives. [Related pubchem assays: 620, 618, 411 ]
[20] = cells; format: functional, cell-based
[21] = fluconazole-exposed Candida albicans growth modulators – fluorescence, retest, confirmation (AID 2467); format: functional, cell-based
[22] = cells; format: functional, cell-based; remark: listed apart in the source
[23] = tested on: HT-1080; test: HT1080 cell viability loss – fluorescence readout (AID 620); format: functional, cell-based; conditions: Homo sapiens
[24] = tested on: Streptococcus; test: GAS UMAA2166 growth inhibition – luminescence, BacTiterGlo, counter-screen for streptokinase expression inhibitor project, dose response (AID 1915); format: functional, organism-based;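 also: potency for reduction of bacterial viability or growth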
[25] = target: T2, Coagulation factor XII (Homo sapiens, UniProt P00748); test: activated coagulation factor XII inhibitor potency, concentration-effect curve, cell-free (AID 716); format: functional
T2 sequence (P00748 whole entry): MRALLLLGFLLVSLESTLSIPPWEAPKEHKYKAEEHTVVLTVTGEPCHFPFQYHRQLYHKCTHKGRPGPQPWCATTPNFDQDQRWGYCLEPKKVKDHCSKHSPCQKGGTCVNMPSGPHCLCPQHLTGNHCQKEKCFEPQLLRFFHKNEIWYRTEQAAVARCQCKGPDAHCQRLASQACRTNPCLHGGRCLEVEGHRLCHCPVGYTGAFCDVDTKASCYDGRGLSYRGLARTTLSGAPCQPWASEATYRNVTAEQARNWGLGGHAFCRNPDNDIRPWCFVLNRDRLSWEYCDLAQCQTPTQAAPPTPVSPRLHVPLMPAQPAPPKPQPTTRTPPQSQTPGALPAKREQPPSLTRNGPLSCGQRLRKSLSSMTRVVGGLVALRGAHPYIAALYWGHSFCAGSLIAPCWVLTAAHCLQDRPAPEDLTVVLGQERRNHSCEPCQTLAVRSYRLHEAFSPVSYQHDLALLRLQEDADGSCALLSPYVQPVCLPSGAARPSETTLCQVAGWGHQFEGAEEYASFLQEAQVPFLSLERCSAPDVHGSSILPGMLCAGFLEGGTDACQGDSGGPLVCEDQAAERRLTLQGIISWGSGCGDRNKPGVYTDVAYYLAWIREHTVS

[26] = target: T3, Microphthalmia-associated transcription factor (Homo sapiens, UniProt O75030); test: reducers of TRPM1 reporter luminescence, concentration series – cell-based, SK-MEL-5, cherry-picked, set 3, MITF inhibitor project, dose response (AID 493073); format: functional;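 also: SK-MEL-5 melanoma cells with luciferase driven by the MITF target TRPM1 promoter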
T3 sequence (O75030 whole entry): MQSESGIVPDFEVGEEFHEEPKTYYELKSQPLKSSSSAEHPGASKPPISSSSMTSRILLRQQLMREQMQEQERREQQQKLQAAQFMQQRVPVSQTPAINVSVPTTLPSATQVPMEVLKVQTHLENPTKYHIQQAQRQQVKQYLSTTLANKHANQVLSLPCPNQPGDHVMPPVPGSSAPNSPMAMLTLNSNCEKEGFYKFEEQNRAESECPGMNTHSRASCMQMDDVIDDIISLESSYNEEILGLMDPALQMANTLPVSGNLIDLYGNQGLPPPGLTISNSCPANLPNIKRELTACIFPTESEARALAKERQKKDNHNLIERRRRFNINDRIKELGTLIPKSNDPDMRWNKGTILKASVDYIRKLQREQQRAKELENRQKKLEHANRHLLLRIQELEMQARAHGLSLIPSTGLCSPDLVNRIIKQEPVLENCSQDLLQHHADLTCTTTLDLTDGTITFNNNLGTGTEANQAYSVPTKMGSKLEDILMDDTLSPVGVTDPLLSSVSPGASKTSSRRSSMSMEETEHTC

[27] = reduction of Shn3 3'UTR-driven luciferase in osteoblasts – cell-based, Clone20 osteoblasts, firefly luciferase, cherry-picked, dose response (AID 624132); format: functional;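 also: firefly luciferase luminescence from reporter carrying the Shn3 3'UTR in osteoblasts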
[28] = loss of viability in HepG2 cells – cell-based, CellTiter-Glo, cherry-picked, cytotoxicity control for Shn3 inhibitor project, dose response (AID 624134); format: functional
[29] = non-specific 3'UTR reporter inhibition in Clone20-Shn3RL – cell-based, Renilla luciferase, cherry-picked, counter-screen for Shn3 inhibitor project, dose response (AID 624133); format: functional
[30] = ATP-based viability loss in HepG2 cells – cell-based, CellTiter-Glo luminescence, dry powder, set 3, cytotoxicity control, dose response (AID 720594); format: functional
[31] = ATP-based viability loss in HEK293T cells – cell-based, CellTiter-Glo luminescence, dry powder, set 2, cytotoxicity control, dose response (AID 720595); format: functional; conditions: HEK293
[32] = ATP-based viability loss in HeLa cells – cell-based, CellTiter-Glo luminescence, dry powder, set 2, cytotoxicity control, dose response (AID 720593); format: functional
[33] = general mammalian cell viability loss – inhibitor set, cherry-pick, set 2, cytotoxicity control for miR-122 modulator project, dose response (AID 720697); format: functional, cell-based
[34] = general mammalian cell viability loss – activator set, cherry-pick, cytotoxicity control for miR-122 modulator project, dose response (AID 720690); format: functional, cell-based;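 also: HEK293T human cells scored for general mammalian cytotoxicity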
[35] = inhibitors of non-replicating M. tuberculosis, dose response, luciferase, dry powder (AID 651619); format: functional; conditions: Mycobacterium tuberculosis
[36] = inhibitors of non-replicating M. tuberculosis, dose response, luciferase, dry powder (AID 651620); format: functional; conditions: Mycobacterium tuberculosis
[37] = growth inhibition of replicating M. tuberculosis, dose response, counter-screen, dry powder, IC90 (AID 651617); format: functional; conditions: Mycobacterium tuberculosis

T1 sequence (P02675 whole entry, the tested form may be a part): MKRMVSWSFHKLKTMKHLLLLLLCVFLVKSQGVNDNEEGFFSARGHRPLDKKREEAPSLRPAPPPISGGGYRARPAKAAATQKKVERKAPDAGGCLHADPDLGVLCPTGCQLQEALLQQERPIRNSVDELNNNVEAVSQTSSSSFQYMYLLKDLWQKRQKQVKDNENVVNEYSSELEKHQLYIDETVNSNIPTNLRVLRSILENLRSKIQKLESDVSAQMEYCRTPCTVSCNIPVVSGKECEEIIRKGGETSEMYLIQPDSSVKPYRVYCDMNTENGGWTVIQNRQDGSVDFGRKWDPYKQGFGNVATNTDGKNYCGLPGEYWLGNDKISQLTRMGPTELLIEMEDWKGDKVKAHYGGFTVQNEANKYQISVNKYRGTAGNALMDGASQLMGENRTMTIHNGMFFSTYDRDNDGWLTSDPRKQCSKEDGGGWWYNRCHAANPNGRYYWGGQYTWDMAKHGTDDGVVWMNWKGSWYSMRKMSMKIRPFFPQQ
Sequence of Paired box protein Pax-8 (Q06710 whole entry): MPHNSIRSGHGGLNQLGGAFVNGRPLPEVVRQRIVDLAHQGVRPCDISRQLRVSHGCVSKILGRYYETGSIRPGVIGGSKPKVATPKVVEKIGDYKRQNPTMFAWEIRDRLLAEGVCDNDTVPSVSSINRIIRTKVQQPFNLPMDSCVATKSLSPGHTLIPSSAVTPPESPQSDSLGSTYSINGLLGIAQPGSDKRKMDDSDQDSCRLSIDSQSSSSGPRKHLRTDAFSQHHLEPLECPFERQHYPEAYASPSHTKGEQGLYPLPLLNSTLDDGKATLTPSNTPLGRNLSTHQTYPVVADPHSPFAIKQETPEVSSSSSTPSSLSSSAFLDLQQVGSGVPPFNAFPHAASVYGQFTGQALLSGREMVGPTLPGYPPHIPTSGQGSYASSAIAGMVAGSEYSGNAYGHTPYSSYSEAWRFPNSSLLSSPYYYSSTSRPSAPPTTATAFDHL
Sequence of Luciferin 4-monooxygenase (P08659 whole entry): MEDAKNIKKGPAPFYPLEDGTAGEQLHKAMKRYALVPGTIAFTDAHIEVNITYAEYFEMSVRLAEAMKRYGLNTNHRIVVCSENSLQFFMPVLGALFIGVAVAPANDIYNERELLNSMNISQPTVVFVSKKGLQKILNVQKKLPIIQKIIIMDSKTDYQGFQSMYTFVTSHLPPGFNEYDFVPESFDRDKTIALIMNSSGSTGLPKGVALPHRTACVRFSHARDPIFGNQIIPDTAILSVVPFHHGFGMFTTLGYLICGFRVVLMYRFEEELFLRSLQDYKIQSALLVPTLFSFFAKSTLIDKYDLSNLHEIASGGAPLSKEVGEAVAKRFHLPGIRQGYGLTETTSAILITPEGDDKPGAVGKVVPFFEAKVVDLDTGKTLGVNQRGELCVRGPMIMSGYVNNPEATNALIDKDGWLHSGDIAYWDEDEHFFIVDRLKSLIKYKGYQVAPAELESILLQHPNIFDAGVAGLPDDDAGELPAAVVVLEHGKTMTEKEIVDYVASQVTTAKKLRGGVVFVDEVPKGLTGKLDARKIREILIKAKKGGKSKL

SMILES: COc1ccc2c3c([nH]c2c1)[C@H](CO)N(C(C)=O)CC31CCN(C(=O)c2cccc(F)c2)CC1
- AC50 [1]: 14.1 µM (active)

SMILES: COc1ccccc1-c1ccc([C@@H]2[C@@H]3CN(S(=O)(=O)c4ccc(-c5ccccc5)cc4)C[C@H]2N3)cc1
- AC50 [2]: 23.3 µM (active)
- AC50 [3]: 9.34 µM (active)
- AC50 [4]: 33.6 µM (active)
- AC50 [5]: 49.5 µM (active)
- AC50 [6]: 302 nM (active)
- AC50 [7]: 56 µM (active)
- AC50 [8]: 2.6 µM (active)
- AC50 [9]: 10.6 µM (active)

SMILES: Cc1cc2c(cc1S(=O)(=O)N1CCN(c3cccc(C)c3C)CC1)OCCN2C
- IC50 [10]: 10.1 µM (inactive)
- IC50 [11]: > 83.3 µM (inactive)

SMILES: COc1cccc(C#Cc2ccc([C@H]3[C@@H](CO)N(C(=O)c4ccccn4)[C@H]3C#N)cc2)c1
- AC50 [2]: 2.41 µM (active)
- AC50 [12]: 9.59 µM (active)
- AC50 [4]: 14.6 µM (active)
- AC50 [13]: 7.82 µM (active)
- AC50 [5]: 17.8 µM (active)
- AC50 [14]: 18.4 µM (active)
- AC50 [15]: 24.1 µM (active)
- AC50 [7]: 51.4 µM (active)
- AC50 [16]: 10.4 µM (active)
- AC50 [8]: 1.27 µM (active)
- AC50 [9]: > 39 µM (inactive)

SMILES: CC(C)C(=O)NC(c1ccco1)c1ccc2cccnc2c1O (stereo not drawn)
- EC50 [17]: 4.72 µM (inconclusive)
- EC50 [18]: 3.15 µM (active)
- EC50 [19]: 38.8 µM (active)
- EC50 [20]: 16.5 µM (active)
- EC50 [21]: 1.6 µM (active)
- EC50 [22]: > 350 µM (not active)
- EC50 [23]: > 50 µM (not active)
- EC50 [24]: 3.87 µM (active)
- IC50 [25]: > 50 µM (inactive)
- AC50 [26]: 8.18 µM (active)
- AC50 [27]: 2.05 µM (active)
- AC50 [28]: 3.1 µM (active)
- AC50 [29]: 4.36 µM (active)
- AC50 [30]: > 52 µM (inactive)
- AC50 [31]: 6.24 µM (active)
- AC50 [32]: > 52 µM (inactive)
- AC50 [33]: 3.72 µM (active)
- AC50 [34]: 5 µM (active)

SMILES: Fc1ccc(-c2nnc(SCc3ccccn3)o2)cc1
- IC90 [35]: 4 µM (active)
- IC90 [36]: 4 µM (active)
- IC90 [37]: 62 µM (active)
